# From publication PMC6112376, “Comprehensive Analyses and Prioritization of Tox21 10K Chemicals Affecting Mitochondrial Function by in-Depth Mechanistic Studies” (Environmental Health Perspectives, 2018)
# Like-named read-outs stand apart in the source and are kept apart here.
# Legend:
# HepG2 cells [1] = test: cells; conditions: Homo sapiens; for IC50: HepG2, read-out: MMP assays IC50 (µM) HepG2; for Emax: HepG2, read-out: MMP assays efficacy (%) HepG2
# rat primary hepatocytes [2] = test system: rat primary hepatocytes
# HepG2 cells [3] = conditions: cited from earlier work
# rat primary hepatocytes [4] = test: MMP assay in rat primary hepatocytes; conditions: for IC50: Rattus norvegicus, Hepatocyte, read-out: MMP assays IC50 (µM) Rat Hepatocytes
# [5] = read-out: MMP assays IC50 (µM) qHTS-HepG2
# [6] = read-out: MMP assays IC50 (µM), qHTS-HepG2
SMILES,IC50 (HepG2 cells [1]) [µM],Emax (HepG2 cells [1]) [%],MMP assays efficacy (%) Rat Hepatocytes (rat primary hepatocytes [2]),MMP assays efficacy (%) qHTS-HepG2 (HepG2 cells [3]) [%],IC50 (HepG2 cells [3]; [5]) [µM],IC50 (rat primary hepatocytes [4]) [µM],IC50 (HepG2 cells [3]; [6]) [µM],MMP assays IC50 (µM) Rat Hepatocytes (rat primary hepatocytes [4])
"COc1ccc(C(=O)c2ccccc2O)c(O)c1 [2,2'-Dihydroxy-4-methoxybenzophenone]",5.24,103,-47±18%,-98±6,9.89 ± 1.04,11.1 ± 5.21,–,–
CCCOC(=O)c1ccc(O)cc1 [Propylparaben],35.5,91,inactive,-99±4,–,–,38.6 ± 1.67,inactive
O=C1c2cccc(O)c2C(=O)c2c(O)cccc21 [Danthron],15.5,91,-40±18%,-78±3,4.66 ± 1.19,5.97 ± 5.35,–,–
COP(=S)(OC)Oc1cc(Cl)c(Br)cc1Cl [Bromofos],8.91,95,-111±7%,-105±8,7.7 ± 1.63,22.7 ± 10.4,–,–
CCCCCCc1ccc(-c2ccc(C#N)cc2)cc1 [4-Hexyl-4'-cyanobiphenyl],31.6,59,-56±24%,-109±6,42.5 ± 15.4,17.5 ± 15.6,–,–
C=CC[C@]1(O)CC[C@H]2[C@@H]3CCC4=CCCC[C@@H]4[C@H]3CC[C@@]21C [Allylestrenol],31.6,97,inactive,-52±13,12.8 ± 3.68,–,–,inactive
CC(=O)CC(c1ccc([N+](=O)[O-])cc1)c1c(O)c2ccccc2oc1=O (stereo not drawn) [Acenocoumarol],9.32,89,-64±56%,-96±12,8.36 ± 1.07,4.59 ± 1.82,–,–
"CC(C)(C)CC(C)(C)c1ccc(O)cc1 [4-(1,1,3,3-Tetramethylbutyl)phenol]",4.89,100,inactive,-103±8,4.25 ± 0.92,–,–,inactive
O=C1C(I)=CC(=C(c2cc(I)c(O)c(I)c2)c2ccccc2C(=O)O)C=C1I [Iodophthalein],4.35,98,-96±3%,-95±6,–,7.32 ± 0.6,5.31 ± 1.76,–
COC1C(O)CC(OC2CC(Oc3cc4cc5c(c(O)c4c(O)c3C)C(=O)[C@@H](OC3CC(OC4CC(OC6CC(C)(O)C(OC(C)=O)C(C)O6)C(O)C(C)O4)C(O)C(C)O3)[C@H]([C@H](OC)C(=O)[C@@H](O)[C@@H](C)O)C5)OC(C)C2OC(C)=O)OC1C (stereo partly drawn) [chromomycin],35.5,44,inactive,-84±13,12.3 ± 0.84,–,–,inactive
C[C@@H]1O[C@@H](O[C@H]2C[C@@H](O)[C@]3(CO)[C@H]4[C@H](O)C[C@]5(C)[C@@H](C6=CC(=O)OC6)CC[C@]5(O)[C@@H]4CC[C@]3(O)C2)[C@H](O)[C@H](O)[C@H]1O [Ouabain],0.22,94,inactive,-88±7,–,–,0.18,inactive
C[C@]12O[C@H](C[C@]1(O)CO)n1c3ccccc3c3c4c(c5c6ccccc6n2c5c31)CNC4=O [lestaurtinib],5.62,100,-92±26%,-84±9,–,12.8 ± 2.67,4.8 ± 0.97,–
CCCN(CC1CC1)c1c([N+](=O)[O-])cc(C(F)(F)F)cc1[N+](=O)[O-] [Profluralin],39.8,58,-37±10%,-76±20,–,25.1 ± 35.4,21.7 ± 8.04,–
